A short description of the data set: comparative stability of hypochlorous acid in the presence of various ingredients (free available chlorine, FAC). Type of data set: physicochemical. An excerpt: Free available chlorine or free active chlorine (FAC) refers to the amount of chlorine that is available to disinfect or kill microorganisms. Importantly, FAC covers many forms of chlorine, such as hypochlorous acid and hypohalite anion, in addition to freely available chlorine. Measurement and quantification of FAC is typically accomplished by a titration or colorimetric method. In certain embodiments, the eyelid cleanser composition contains 10 to 300 ppm of free available chlorine (FAC).
Table 1 illustrates the comparative stability of hypochlorous acid in the presence of various ingredients. The inventors determined that only specific ingredients disclosed in the disclosed embodiments are compatible with hypochlorous acid. For example, after 7 days in solution with sodium laureth sulfate, the FAC concentration decreased by about 4% per day.

Where [1] appears, read: component tested at 0.50%, start.
The mark [2] stands for this setting: component tested at 0.5%^, start.
[3] abbreviates: FAC, component 0.01 M, time 2 days.
Setting [4] is: component tested at 0.01 M in hypochlorous acid solution, start.

Like-named read-outs stand apart in the source and are kept apart here.

As for `CC(C)(CO)C(O)C(=O)NCCCO` (centres unmarked) [DI-Panthenol], for the setting “FAC, component 1%, time 3 days”, the “% change/day” value is −26%. Also, the “FAC End” value (component 1%, time 3 days) is given as 23 ppm. Besides, the “FAC Start” value (component tested at 1%, start) amounted to 101 ppm.

Turning to `CCCCCCCCOC(=O)CC(C(=O)OCCCCCCCC)S(=O)(=O)O.[Na]` (centres unmarked) [Dioctyl Sulfosuccinate Sodium], the “% change/day” value was −6% (FAC, component 0.50%, time 10 days) and −1% (FAC, component 0.5%^, time 38 days). Besides, the “FAC End” value (component 0.50%, time 10 days) was determined as 113 ppm and the “FAC End” value (component 0.5%^, time 38 days) is on record as 194 ppm. The “FAC Start” value is 289 ppm under setting [1] and 289 ppm under setting [2].

Sodium Laureth Sulfate: the “% change/day” value (FAC, component 0.5%^, time 7 days) is −4%. Further, the FAC concentration decrease result (after 7 days in solution) is on record as “about 4 % per day”. Under “component 0.5%^, time 7 days”, the “FAC End” value is recorded as 208 ppm. Moreover, the “FAC Start” value under setting [2] turned out to be 287 ppm.

Consider `O=C([O-])CC(O)(CC(=O)[O-])C(=O)[O-].[Na+].[Na+].[Na+]` [Sodium Citrate], for which, under setting [3], the “% change/day” value is −49%. Also, the “FAC End” value (component 0.01 M, time 2 days) was found to be 2.6 ppm. Moreover, the “FAC Start” value under setting [4] amounted to 125.1 ppm.

With `CC(=O)[O-].[Na+]` [Sodium Acetate], the “% change/day” value is 2%, the “FAC End” value is given as 377 ppm and the “FAC Start” value came out at 362.1 ppm.

Consider `O=P([O-])([O-])O.[Na+].[Na+]` [Sodium Dibasic Phosphate], for which the “% change/day” value under setting [3] stood at 16%. Further, for the setting “component 0.01 M, time 2 days”, the “FAC End” value was determined as 331.1 ppm. Also, under setting [4], the “FAC Start” value was determined as 250 ppm.

As to `O=P([O-])(O)O.[Na+]` [Sodium Monobasic Phosphate], the “% change/day” value under setting [3] is 2%. Also, the “FAC End” value (component 0.01 M, time 2 days) stood at 374.4 ppm. In addition, under setting [4], the “FAC Start” value came out at 361.4 ppm.

With Polysorbate 20, for the setting “FAC, component 0.50%, time 2 days”, the “% change/day” value is recorded as −16%. Also, the “FAC End” value (component 0.50%, time 2 days) is 264.9 ppm. Also, under setting [1], the “FAC Start” value was determined as 391 ppm.

For `O=C(O)CC(O)(CC(=O)O)C(=O)O` [Citric Acid], the “% change/day” value under setting [3] was −49%. Also, the “FAC End” value (component 0.01 M, time 2 days) is on record as 5.1 ppm. In addition, the “FAC Start” value under setting [4] came to 188.9 ppm.

Consider `CCCCCCCCCCO[C@@H]1O[C@H](CO)[C@@H](O)[C@H](O)[C@H]1O` [Decyl Glucoside], for which, for the setting “FAC, component 1%, time 3 days”, the “% change/day” value is −100%. Also, under “component 1%, time 3 days”, the “FAC End” value is given as 0 ppm. Further, the FAC Start (component tested at 1%, start) amounted to 3 ppm. Also, the “degradation of hypochlorous acid (observation)” value (in the presence of the component) is on record as “immediate degradation”.

On to `CC(=O)O` [Acetic Acid], for which the “% change/day” value under setting [3] is 2%. Besides, the “FAC End” value (component 0.01 M, time 2 days) is on record as 384.6 ppm. Besides, the “FAC Start” value under setting [4] came out at 367.5 ppm.

Take `OCC(O)CO` [Glycerin]: the “% change/day” value (FAC, component 1%, time 3 days) is −17%. Besides, the “FAC End” value (component 1%, time 3 days) is 50 ppm. For the same molecule, the “FAC Start” value (component tested at 1%, start) was 102 ppm.

Regarding `CC(O)CO` (centres unmarked) [Propylene Glycol], the “% change/day” value (FAC, component 1%, time 3 days) is reported as −11%. Besides, the “FAC End” value (component 1%, time 3 days) is recorded as 67 ppm. Under “component tested at 1%, start”, the “FAC Start” value is 99 ppm.

In the case of `CCCCCCCCCCCCOS(=O)(=O)[O-].[Na+]` [Sodium Lauryl Sulfate], the “% change/day” value (FAC, component 0.5%^, time 238 days) is recorded as 0%. In addition, for the setting “component 0.5%^, time 238 days”, the “FAC End” value was 11 ppm. In addition, under setting [2], the “FAC Start” value was determined as 267 ppm.

Source of the values: patent US12636238B2, “Hypochlorous acid-based eyelid cleansers” (OCuSOFT, Inc., priority 2023, dated 2026).
